Assay results: paper PMC11050424, “Antibacterial and Hemolytic Activity of Antimicrobial Hydrogels Utilizing Immobilized Antimicrobial Peptides” (International Journal of Molecular Sciences, 2024)
≈ marks a conversion by molar mass, not a printed value. Residues, ends and D or L forms follow the SMILES beside them.

How the values were obtained:
[1] = test system: P. aeruginosa (CCUG 56489); format: cell-based, Pseudomonas aeruginosa
Experimental: (§1) The minimum inhibitory concentration protocol was adapted from [42], with the main change in volume for easier observation. In short, the protocol was as follows: a single colony of Staphylococcus aureus (CCUG 10778) or Pseudomonas aeruginosa (CCUG 56489) was inoculated in 4 mL of TSB and cultivated at 37 °C until OD ~ 0.7 which corresponds to a concentration of roughly 10^9 CFU mL^−1. This was then diluted 1000 times to a concentration of roughly 10^6 CFU mL^−1 using Mueller Hinton broth (MH broth). In the meantime, the different peptides were weighed in separate 15 mL falcon tubes and dissolved in MH broth for a concentration of 512 µM. Serial dilution by a factor of 2 was then performed, with MH broth, in a 24-well plate, leaving 500 µL of solution in each well. Then, 500 µL of the bacterial solution was added to each well resulting in a starting concentration of 5 × 10^5 CFU mL^−1. […] The plates were cultivated overnight (16–18 h) and the minimum inhibitory concentration was determined for the lowest concentration where no visible growth was observed. Three separate experiments were performed for all peptides and bacteria.

[2] = test system: S. aureus (CCUG 10778); format: cell-based, Staphylococcus aureus
Experimental: as §1

[3] = test system: defibrinated horse blood; format: cell-based; settings: red cells of horse, 1 h
Experimental: The use of hemolysis assays to study AMPs is a common implementation and quite standardized with small variations. Serial dilutions of the free AMPs were prepared in PBS to obtain 100 µL in Eppendorf tubes of the concentrations: 2, 4, 8, 16, 32, 64, 128, and 256 µM. A total of 100 µL of just PBS was added to an Eppendorf tube to serve as a negative control, and 100 µL of 0.2% Triton X-100 was added to an Eppendorf tube to serve as a positive control. The functionalized 8 mm Ø hydrogels as well as non-functionalized control hydrogels were placed in Eppendorf tubes together with 0.1, 0.2, 0.3 mL, or 0.4 mL PBS, two samples per type. For each volume, a set of negative control (PBS) and positive control (0.2% Triton X-100) was included using a matching volume. The blood used for the study was defibrinated horse blood from Thermo Fisher Scientific. The blood was placed in a 15 mL falcon tube and centrifuged at 4 °C for 10 min at 1000× g. The supernatant was discarded, and the erythrocytes were resuspended in 4 °C PBS and again centrifuged and the supernatant was removed. […]
The Eppendorf tubes were placed in an incubator at 37 °C for 1 h and the tubes were rotated 3 times every 15 min to limit sedimentation of the red blood cells. […] The absorbance was read at 540 nm using a Multiskan GO from Thermo Fisher Scientific. The rate of hemolysis was determined by Equation (2). […]

MIC, P. aeruginosa [1] [µM]	MIC, S. aureus [2] [µM]	SMILES	Hemolysis at 8–16 µM (observed MIC values against P. aeruginosa) [3]; 16	Hemolysis at corresponding MIC values [3]
64 to 128	–	NCCCC[C@H](NC(=O)[C@@H](N)CCCCN)C(=O)N1CCC[C@H]1C(=O)N[C@@H](CCCCN)C(=O)N1CCC[C@H]1C(=O)N[C@@H](CCCCN)C(=O)N1CCC[C@H]1C(=O)N[C@@H](CCCCN)C(=O)N1CCC[C@H]1C(=O)N[C@@H](Cc1c[nH]c2ccccc12)C(=O)N[C@@H](Cc1c[nH]c2ccccc12)C(=O)N[C@@H](Cc1c[nH]c2ccccc12)C(=O)N[C@@H](Cc1c[nH]c2ccccc12)C(N)=O [K9W4] (H-KKPKPKPKPWWWW-NH2)	–	–
16 to 64	8 to 16	N=C(N)NCCC[C@H](NC(=O)[C@@H]1CCCN1C(=O)[C@H](CCCNC(=N)N)NC(=O)[C@@H]1CCCN1C(=O)[C@H](CCCNC(=N)N)NC(=O)[C@@H]1CCCN1C(=O)[C@H](CCCCN)NC(=O)[C@@H](N)CCCCN)C(=O)N1CCC[C@H]1C(=O)N[C@@H](Cc1c[nH]c2ccccc12)C(=O)N[C@@H](Cc1c[nH]c2ccccc12)C(=O)N[C@@H](Cc1c[nH]c2ccccc12)C(=O)N[C@@H](Cc1c[nH]c2ccccc12)C(N)=O [KR9W4] (H-KKPRPRPRPWWWW-NH2)	–	–
32 (≈ 56.9 µg/mL)	4 to 8	CC[C@H](C)[C@H](N)C(=O)N[C@@H](CC(C)C)C(=O)N[C@@H](CCCNC(=N)N)C(=O)N[C@@H](Cc1c[nH]c2ccccc12)C(=O)N1CCC[C@H]1C(=O)N[C@@H](Cc1c[nH]c2ccccc12)C(=O)N[C@@H](Cc1c[nH]c2ccccc12)C(=O)N1CCC[C@H]1C(=O)N[C@@H](Cc1c[nH]c2ccccc12)C(=O)N[C@@H](CCCNC(=N)N)C(=O)N[C@@H](CCCNC(=N)N)C(=O)N[C@@H](CCCCN)C(N)=O [Omiganan, reference compound] (H-ILRWPWWPWRRK-NH2)	–	–
8 to 16	1 to 2	CC[C@H](C)[C@H](NC(=O)CNC(=O)[C@H](CCCNC(=N)N)NC(=O)[C@H](Cc1ccccc1)NC(=O)[C@@H](NC(=O)[C@H](Cc1c[nH]cn1)NC(=O)[C@H](Cc1c[nH]cn1)NC(=O)[C@H](Cc1ccccc1)NC(=O)[C@@H](N)Cc1ccccc1)[C@@H](C)CC)C(=O)N[C@H](C(=O)N[C@@H](Cc1c[nH]cn1)C(=O)N[C@H](C(=O)NCC(=O)N[C@@H](CCCCN)C(=O)N[C@H](C(=O)N[C@H](C(=O)N[C@@H](Cc1c[nH]cn1)C(=O)N[C@@H](CCCNC(=N)N)C(=O)N[C@@H](CC(C)C)C(=O)N[C@H](C(=O)N[C@H](C(=O)NCC(N)=O)[C@@H](C)O)C(C)C)[C@@H](C)CC)[C@@H](C)O)C(C)C)C(C)C [Piscidin 1, reference compound] (H-FFHHIFRGIVHVGKTIHRLVTG-NH2)	60–100%	–
16 (≈ 30.9 µg/mL)	8 (≈ 15.5 µg/mL)	N=C(N)NCCC[C@H](NC(=O)[C@@H](N)CCCNC(=N)N)C(=O)N1CCC[C@H]1C(=O)N[C@@H](CCCNC(=N)N)C(=O)N1CCC[C@H]1C(=O)N[C@@H](CCCNC(=N)N)C(=O)N1CCC[C@H]1C(=O)N[C@@H](CCCNC(=N)N)C(=O)N1CCC[C@H]1C(=O)N[C@@H](Cc1c[nH]c2ccccc12)C(=O)N[C@@H](Cc1c[nH]c2ccccc12)C(=O)N[C@@H](Cc1c[nH]c2ccccc12)C(=O)N[C@@H](Cc1c[nH]c2ccccc12)C(N)=O [R9W4] (H-RRPRPRPRPWWWW-NH2)	–	below 20%

SMILES	MIC, P. aeruginosa [1] [µM]	MIC, S. aureus [2] [µM]	Hemolysis at 8–16 µM (observed MIC values against P. aeruginosa) [3]; 16	Hemolysis at corresponding MIC values [3]
N=C(N)NCCC[C@H](NC(=O)[C@@H](N)CCCNC(=N)N)C(=O)N1CCC[C@H]1C(=O)N[C@@H](CCCNC(=N)N)C(=O)N1CCC[C@H]1C(=O)N[C@@H](CCCNC(=N)N)C(=O)N1CCC[C@H]1C(=O)N[C@@H](CCCNC(=N)N)C(=O)N1CCC[C@H]1C(=O)N[C@@H](Cc1c[nH]c2ccccc12)C(=O)N[C@@H](Cc1c[nH]c2ccccc12)C(=O)N[C@@H](Cc1c[nH]c2ccccc12)C(=O)N[C@@H](Cc1c[nH]c2ccccc12)C(=O)N[C@@H](Cc1c[nH]c2ccccc12)C(N)=O [R9W5] (H-RRPRPRPRPWWWWW-NH2)	32 to 64	16 (≈ 33.9 µg/mL)	–	–
